In brackets after ≈: the same amount, converted by molar mass. Like-named read-outs stand apart in the source and are kept apart here.
Assays:
Assay type in all cases: cell-based
Rhizoctonia solani (Rs) = test: In vitro pathogen growth inhibition assay, Rs (mycelial plugs); conditions: Rhizoctonia solani, 48 h
Method in brief: (§1)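 Spores in 17% V8 liquid medium, or 1.5 mm Rs mycelial plugs in ¼ PDB, incubated with compound; final concentration checked by OD600 for precipitation. OD readings at 24 and 48 h, blank-subtracted, plus visual ratings; value is concentration giving ≥90% growth inhibition.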

[1] = tested on: Phytophthora capsici (Pc); test: In vitro pathogen growth inhibition assay, Pc; conditions: 48 h
Method in brief: as §1

Septoria tritici (St) = test: In vitro pathogen growth inhibition assay, St; conditions: Zymoseptoria tritici, 48 h
Method in brief: (§2)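 Value reported is the compound concentration reaching ≥90% growth inhibition, from OD readings at 24 and 48 h after blank subtraction, confirmed visually. Inoculum was spores diluted in 17% V8 medium, except Rs, using 1.5 mm mycelial plugs in ¼ PDB; actual compound concentration corrected via OD600.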

Diplodia maydis (Dm) = test: In vitro pathogen growth inhibition assay, Dm; conditions: Stenocarpella maydis, 48 h
Method in brief: as §1

[2] = tested on: Fusarium moniliforme (Fm); test: In vitro pathogen growth inhibition assay, Fm; conditions: Fusarium verticillioides
Method in brief: as §2

Botrtyis cinerea (Bc) = test: In vitro pathogen growth inhibition assay, Bc; conditions: 48 h
Method in brief: as §2

[3] = tested on: Fusarium virguliforme (Fv); test: In vitro pathogen growth inhibition assay, Fv
Method in brief: as §1

[4] = tested on: Collectotrichum graminicola (Cg); test: In vitro pathogen growth inhibition assay, Cg; conditions: 48 h
Method in brief: as §2

[5] = concentration sufficient to ≥90% inhibition of growth, 48 hours vs 2% DMSO control, read-out: Compound Concentration (ppm) for ≥90% inhibition, Rs
[6] = concentration sufficient to ≥90% inhibition of growth, 48 hours vs 2% DMSO control, read-out: Compound Concentration (ppm) for ≥90% inhibition, Pc
[7] = concentration sufficient to ≥90% inhibition of growth, 48 hours vs 2% DMSO control, read-out: Compound Concentration (ppm) for ≥90% inhibition, St
[8] = concentration sufficient to ≥90% inhibition of growth, 48 hours vs 2% DMSO control, read-out: Compound Concentration (ppm) for ≥90% inhibition, Dm
[9] = concentration sufficient to ≥90% inhibition of growth, 48 hours vs 2% DMSO control, read-out: Compound Concentration (ppm) for ≥90% inhibition, Fm
[10] = concentration sufficient to ≥90% inhibition of growth, 48 hours vs 2% DMSO control, read-out: Compound Concentration (ppm) for ≥90% inhibition, Bc
[11] = concentration sufficient to ≥90% inhibition of growth, 48 hours vs 2% DMSO control, read-out: Compound Concentration (ppm) for ≥90% inhibition, Fv
[12] = concentration sufficient to ≥90% inhibition of growth, 48 hours vs 2% DMSO control, read-out: Compound Concentration (ppm) for ≥90% inhibition, Cg
[13] = ≥90% growth inhibition, mycelial plugs, 48 hours, vs 2% DMSO control, read-out: Compound Concentration (ppm) sufficient for ≥90% inhibition of Rs
[14] = ≥90% growth inhibition, 48 hours, vs 2% DMSO control, read-out: Compound Concentration (ppm) sufficient for ≥90% inhibition of Pc
[15] = ≥90% growth inhibition, 48 hours, vs 2% DMSO control, read-out: Compound Concentration (ppm) sufficient for ≥90% inhibition of St
[16] = ≥90% growth inhibition, 48 hours, vs 2% DMSO control, read-out: Compound Concentration (ppm) sufficient for ≥90% inhibition of Dm
[17] = ≥90% growth inhibition, 48 hours, vs 2% DMSO control, read-out: Compound Concentration (ppm) sufficient for ≥90% inhibition of Fm
[18] = ≥90% growth inhibition, 48 hours, vs 2% DMSO control, read-out: Compound Concentration (ppm) sufficient for ≥90% inhibition of Bc
[19] = ≥90% growth inhibition, 48 hours, vs 2% DMSO control, read-out: Compound Concentration (ppm) sufficient for ≥90% inhibition of Fv
[20] = ≥90% growth inhibition, 48 hours, vs 2% DMSO control, read-out: Compound Concentration (ppm) sufficient for ≥90% inhibition of Cg

Row | IC90 (Rhizoctonia solani (Rs); [5]) | IC90 [1, 6] | IC90 (Septoria tritici (St); [7]) | IC90 (Diplodia maydis (Dm); [8]) | IC90 [2, 9] | IC90 (Botrtyis cinerea (Bc); [10]) | IC90 [3, 11] | IC90 [4, 12] | IC90 (Rhizoctonia solani (Rs); [13]) | IC90 [1, 14] | IC90 (Septoria tritici (St); [15]) | IC90 (Diplodia maydis (Dm); [16]) | IC90 [2, 17] | IC90 (Botrtyis cinerea (Bc); [18]) | IC90 [3, 19] | IC90 [4, 20] | SMILES
1 | – | – | – | – | – | – | – | – | 10 µg/mL (≈ 16.7 µM) | > 50 µg/mL | > 50 µg/mL | > 50 µg/mL | 0.08 µg/mL (≈ 0.134 µM) | 2 µg/mL (≈ 3.34 µM) | 0.08 µg/mL (≈ 0.134 µM) | 10 µg/mL (≈ 16.7 µM) | Cc1c(-n2nccn2)sc2c1c(=O)n(C(C)(C)C(=O)NC(C)C)c(=O)n2CCc1cc(F)ccc1OC1CCOCC1 [Compound I-331]
2 | – | – | – | – | – | – | – | – | > 50 µg/mL | > 50 µg/mL | > 50 µg/mL | > 50 µg/mL | 2 µg/mL (≈ 3.31 µM) | > 50 µg/mL | 2 µg/mL (≈ 3.31 µM) | > 50 µg/mL | Cc1c(-n2nccn2)sc2c1c(=O)n(C(C)(C)C(=O)NC(C)C)c(=O)n2CCc1cc(F)ccc1OCc1ccccc1 [Compound I-332]
3 | – | – | – | – | – | – | – | – | 2 µg/mL (≈ 3.54 µM) | 50 µg/mL (≈ 88.5 µM) | > 50 µg/mL | 10 µg/mL (≈ 17.7 µM) | 0.4 µg/mL (≈ 0.708 µM) | 2 µg/mL (≈ 3.54 µM) | 10 µg/mL (≈ 17.7 µM) | 2 µg/mL (≈ 3.54 µM) | COc1ccccc1[C@H](Cn1c(=O)n([C@H](C)C(=O)NC(C)C)c(=O)c2c(C)c(-n3cccn3)sc21)OCCC#N [Compound I-333]
4 | > 50 µg/mL | > 50 µg/mL | > 50 µg/mL | > 50 µg/mL | 50 µg/mL (≈ 79.9 µM) | > 50 µg/mL | > 50 µg/mL | > 50 µg/mL | – | – | – | – | – | – | – | – | CC(=O)Oc1ccc(F)cc1[C@@H](Cn1c(=O)n(C(C)(C)C(=O)NC(C)C)c(=O)c2c(C)c(-n3nccn3)sc21)OCCC#N [Compound I-334]

More lines, now with the values behind:

Row | SMILES | IC90 (Rhizoctonia solani (Rs); [5]) | IC90 [1, 6] | IC90 (Septoria tritici (St); [7]) | IC90 (Diplodia maydis (Dm); [8]) | IC90 [2, 9] | IC90 (Botrtyis cinerea (Bc); [10]) | IC90 [3, 11] | IC90 [4, 12] | IC90 (Rhizoctonia solani (Rs); [13]) | IC90 [1, 14] | IC90 (Septoria tritici (St); [15]) | IC90 (Diplodia maydis (Dm); [16]) | IC90 [2, 17] | IC90 (Botrtyis cinerea (Bc); [18]) | IC90 [3, 19] | IC90 [4, 20]
5 | COc1ccc(F)cc1[C@@H](Cn1c(=O)n(C(C)(C)C(=O)NC(C)C)c(=O)c2c(C)c(-n3nccn3)sc21)OCCCO [Compound I-320] | > 50 µg/mL | > 50 µg/mL | > 50 µg/mL | > 50 µg/mL | 50 µg/mL (≈ 83 µM) | 50 µg/mL (≈ 83 µM) | 50 µg/mL (≈ 83 µM) | > 50 µg/mL | – | – | – | – | – | – | – | –
6 | CCOC(=O)c1sc2c(c1C)c(=O)n(C(C)(C)C(=O)NC(C)C)c(=O)n2C[C@H](OCC(C)(C)C#N)c1cc(F)ccc1OC [Compound I-321] | – | – | – | – | – | – | – | – | 2 µg/mL (≈ 3.17 µM) | > 50 µg/mL | > 50 µg/mL | ≥ 0.4 µg/mL | 0.08 µg/mL (≈ 0.127 µM) | 0.4 µg/mL (≈ 0.634 µM) | 0.4 µg/mL (≈ 0.634 µM) | 0.4 µg/mL (≈ 0.634 µM)
7 | COc1ccc(F)cc1[C@@H](Cn1c(=O)n(C(C)(C)C(=O)NC(C)C)c(=O)c2c(C)c(-n3nccn3)sc21)OC(C)=O [Compound I-322] | > 50 µg/mL | > 50 µg/mL | > 50 µg/mL | > 50 µg/mL | 10 µg/mL (≈ 17 µM) | 10 µg/mL (≈ 17 µM) | ≥ 10 µg/mL | > 50 µg/mL | – | – | – | – | – | – | – | –
8 | CCNC(=O)C(C)(C)n1c(=O)c2c(C)c(-n3nccn3)sc2n(C[C@H](OC(C)=O)c2cc(F)ccc2OC)c1=O [Compound I-324] | – | – | – | – | – | – | – | – | 2 µg/mL (≈ 3.49 µM) | > 50 µg/mL | > 50 µg/mL | 10 µg/mL (≈ 17.5 µM) | 0.4 µg/mL (≈ 0.699 µM) | 2 µg/mL (≈ 3.49 µM) | 2 µg/mL (≈ 3.49 µM) | 10 µg/mL (≈ 17.5 µM)
9 | COc1ccc(F)cc1[C@H](Cn1c(=O)n(C(C)(C)C(=O)NC(C)C)c(=O)c2c(C)c(CO)sc21)OCCC#N [Compound I-325] | – | – | – | – | – | – | – | – | > 50 µg/mL | > 50 µg/mL | > 50 µg/mL | > 50 µg/mL | 2 µg/mL (≈ 3.57 µM) | 50 µg/mL (≈ 89.2 µM) | 50 µg/mL (≈ 89.2 µM) | > 50 µg/mL
10 | CCc1ccc(F)cc1CCn1c(=O)n(C(C)(C)C(=O)NC(C)C)c(=O)c2c(C)c(-n3nccn3)sc21 [Compound I-326] | – | – | – | – | – | – | – | – | 10 µg/mL (≈ 19 µM) | > 50 µg/mL | > 50 µg/mL | 2 µg/mL (≈ 3.8 µM) | 0.08 µg/mL (≈ 0.152 µM) | 2 µg/mL (≈ 3.8 µM) | 0.08 µg/mL (≈ 0.152 µM) | 2 µg/mL (≈ 3.8 µM)
11 | Cc1c(-n2nccn2)sc2c1c(=O)n(C(C)(C)C(=O)NC(C)C)c(=O)n2CCc1cc(F)ccc1CCCC#N [Compound I-328] | – | – | – | – | – | – | – | – | 10 µg/mL (≈ 17.7 µM) | > 50 µg/mL | > 50 µg/mL | 2 µg/mL (≈ 3.54 µM) | 0.4 µg/mL (≈ 0.707 µM) | 2 µg/mL (≈ 3.54 µM) | 0.4 µg/mL (≈ 0.707 µM) | 10 µg/mL (≈ 17.7 µM)
12 | COc1ccc(F)cc1CCn1c(=O)n(C(C)(C)C(=O)NC(C)C)c(=O)c2c(C)c(-n3cccn3)sc21 [Compound I-329] | – | – | – | – | – | – | – | – | 50 µg/mL (≈ 94.8 µM) | > 50 µg/mL | > 50 µg/mL | 50 µg/mL (≈ 94.8 µM) | 2 µg/mL (≈ 3.79 µM) | 10 µg/mL (≈ 19 µM) | 2 µg/mL (≈ 3.79 µM) | 50 µg/mL (≈ 94.8 µM)
